Assay results published in article PMC12229680, “Neuroprotective and intraocular pressure lowering effects of dual-functional memantine nitrate MN-08 on the experimental models of glaucoma” (Scientific Reports, 2025).

Columns and labels:
[1] = tested on: preclinical models and glaucoma patients; set-up: method as in PMID 25488946, PMID 28234563, PMID 21396362; details: cited from earlier work
[2] = tested on: retinal ganglion cells (RGCs) in retinal ischemia–reperfusion injury rats; test: Retinal ischemia–reperfusion injury model in rats (HE staining, Brn-3a immunofluorescence); assay type: in vivo, rat; details: Memantine 10 mg/kg tail vein, vs Model group
Method: Male Sprague Dawley rats were anesthetized with pentobarbital sodium (30 mg/kg, i.p.). Local anesthesia was administered to the corneas using tetracaine hydrochloride, followed by pupil dilation with tropicamide. A 30-gauge infusion needle was inserted into the anterior chamber of the eye and connected to a normal saline reservoir until the iris turned white. Retinal ischemia was maintained for 1 h at IOP of 110 mmHg. Upon careful withdrawal of the needle, IOP returned to normal, thereby inducing retinal ischemia–reperfusion injury. MN-08 (12 mg/kg) and Memantine (10 mg/kg) were administered via tail vein injection at 3 and 6 h post-surgery and continued twice daily for the subsequent two days. […]
Rats were euthanized by deep anesthetization with pentobarbital sodium (100 mg/kg, i.p.), and their eyes were enucleated for histology analysis. […] Ganglion cell complex (GCC) thickness and the RGCs numbers (retinal ganglion cell layer) were measured and analyzed with ImageJ software.
Eyes of sacrificed rats were rapidly removed; the cornea was cut along the corneoscleral rim after rinsing with PBS under the microscope. […] RGCs were observed using a fluorescence microscope (Olympus, Tokyo, Japan). The number of Brn-3a positive cells was counted manually in five randomly selected fields of view for each region of the whole-mount retina (including the center, mid-periphery, and periphery).

[3] = tested on: human trabecular meshwork cells (HTMCs); test: cGMP ELISA assay in HTMCs; assay type: cell-based; details: 30 min
Method: Primary human trabecular meshwork cells (HTMCs) were isolated from the juxtacanalicular and corneoscleral regions of the human eye from ScienCell Research Laboratories (ScienCell, Carlsbad, CA). HTMCs were maintained in a complete medium consisting of DMEM enriched with 10% fetal bovine serum (FBS) and antibiotics (100 U/ml penicillin and 100 μg/ml streptomycin). Cells were cultured in a humidified incubator containing 5% CO2 at 37 °C. Experiments are conducted using HTMCs between the 5th and 8th passages to avoid cellular senescence. All reagents were obtained from Gibco (San Diego, CA, USA).
HTMCs were seeded at a density of 2 × 10^5 cells per well in 6-well plates. When reaching 80% confluency, the cells were subsequently incubated overnight in low-serum medium (DMEM supplemented with 0.5% FBS). […] After incubating, cells were harvested and lysed, and the levels of cGMP were detected by an ELISA kit (Abcam Corporation, Cambridge, UK). The procedure was conducted following the instructions provided by the manufacturer.

[4] = tested on: glaucoma patients; details: cited from earlier work
[5] = tested on: carbomer-induced glaucoma rabbit model; test: Carbomer-induced experimental glaucoma model in rabbits (IOP); assay type: in vivo; details: latanoprost 0.005% single topical instillation; 0-360 min
Method: The methods were performed as previously described. New Zealand rabbits were anesthetized using an auricular vein injection of 60 mg/kg pentobarbital sodium. Local anesthesia of the corneas was achieved using tetracaine hydrochloride, followed by pupil dilation with tropicamide. An experimental glaucoma model was established by bilaterally injecting 0.25% carbomer (0.1 mL) into the anterior eye chamber of the rabbits. On the fifth day post-carbomer injection, stable high IOP was induced in the rabbits. MN-08 (0.5%, 0.2%, 0.1%, and 0.02%) or latanoprost (0.005%) was administered with a single topical instillation. IOP was measured continuously at 0, 30, 60, 120, 240, and 360 min following instillation with MN-08 or latanoprost (with 5 consecutive measurements being averaged to obtain a single value). At the last IOP measurement, the rabbits were euthanized under sodium pentobarbital anesthesia (100 mg/kg, i.v).

O=C(CCC/C=C\C[C@@H]1[C@@H](CC[C@@H](O)CCc2ccccc2)[C@H](O)C[C@@H]1O)OCCCCO[N+](=O)[O-] [Latanoprostene bunod (LBN), Latanoprostene bunod]
reduction in IOP compared to latanoprost [1]: great reduction

CC12CC3CC(C)(C1)CC(N)(C3)C2 [Memantine]
degree of retinal damage (HE staining) ([2]; 3 and 6 h post-surgery then twice daily for two days): reduced | survival of RGCs (Brn-3a positive cells) [2]: significantly increased | cGMP levels ([3]; memantine 10 μM): neither latanoprost (0.1 μM) nor memantine (10 μM) had any statistically significant effects | glaucoma progression ([4]; clinical trials): failed to significantly delay | effect in protecting visual function ([4]; phase 3 clinical trial): no significant effect

CC(C)OC(=O)CCC/C=C\C[C@@H]1[C@@H](CC[C@@H](O)CCc2ccccc2)[C@H](O)C[C@@H]1O [latanoprost]
carbomer-induced IOP elevation (change from baseline) [5]: reduced | cGMP levels ([3]; latanoprost 0.1 μM): neither latanoprost (0.1 μM) nor memantine (10 μM) had any statistically significant effects
